Like-named read-outs stand apart in the source and are kept apart here.
How the values were obtained:
[1] = Stability test for ubidecarenone and vitamins/minerals under co-existence at typical formulation ratio; format: physicochemical; details: ubidecarenone 50 mg, accelerated stability test
[2] = cited from earlier work
[3] = Stability test for ubidecarenone and vitamins/minerals under co-existence, mixed 1:1; format: physicochemical; details: for % residual amount of ubidecarenone: mixed 1:1, 40±2° C., 75±5 RH %; for effect of ingredient on stability of ubidecarenone: each ingredient singly mixed with ubidecarenone (Table 26)
[4] = Stability test for ubidecarenone according to content of 90% ascorbic acid; format: physicochemical; details: text summary of Table 28
From the text: The results are as follows.

COC1=C(OC)C(=O)C(C/C=C(\C)CC/C=C(\C)CC/C=C(\C)CC/C=C(\C)CC/C=C(\C)CC/C=C(\C)CC/C=C(\C)CC/C=C(\C)CC/C=C(\C)CCC=C(C)C)=C(C)C1=O [Ubidecarenone]
residual amount of ubidecarenone, 2 weeks (%) ([1]; 2 weeks): 99.2% | residual amount of ubidecarenone, Initial (%) ([1]; initial): 100% | solubility ([2]; in alcohol): insoluble | solubility ([2]; in ether): highly soluble | solubility ([2]; in water): insoluble | % residual amount of ubidecarenone ([3]; 2 weeks): 99.2% | % residual amount of ubidecarenone ([3]; initial (regarded as 100.0%)): 100%

CC(=O)Oc1c(C)c(C)c2c(c1C)CCC(C)(CCC[C@H](C)CCC[C@H](C)CCCC(C)C)O2 (stereo partly drawn) [alpha-tocopherol acetate]
effect of ingredient on stability of ubidecarenone [3]: excessively reduce the stability of ubidecarenone

O=C1O[C@H]([C@@H](O)CO)C(O)=C1O [ascorbic acid]
residual amount of ubidecarenone as content of ascorbic acid in sample tablet increases [4]: remarkably reduced

C[N+](C)(C)CCO.O=C([O-])C(O)C(O)C(=O)O (stereo not drawn) [choline bitartrate]
effect of ingredient on stability of ubidecarenone [3]: excessively reduce the stability of ubidecarenone

C=C1CC[C@H](O)C/C1=C/C=C1\CCC[C@]2(C)[C@@H]([C@H](C)CCCC(C)C)CC[C@@H]12 [dried cholecalciferol]
effect of ingredient on stability of ubidecarenone [3]: excessively reduce the stability of ubidecarenone

CCCCCCCCCCCCCCCC(=O)OC/C=C(C)/C=C/C=C(C)/C=C/C1=C(C)CCCC1(C)C [retinol palmitate]
effect of ingredient on stability of ubidecarenone [3]: excessively reduce the stability of ubidecarenone
